Patent US11518764B2, “Substituted heteroaryls as inhibitors of the BCL6 BTB domain protein-protein interaction” (Ontario Institute for Cancer Research (OICR), priority 2018, dated 2022)

Assays:
BCL6 BTB domain = BCL6 BTB domain (Homo sapiens (Human), UniProt P41182); experiment: Surface plasmon resonance (SPR) assay; format: binding; settings: BCL6 BTB domain captured on SA chip, single cycle kinetics
Karpas422 cells = experiment: Tumor cell growth inhibition assay; format: cell-based; settings: Homo sapiens, KARPAS-422, 144 h, read-out: Tumor Growth Inhibition in Karpas-422 (IC50, uM), Karpas422 cells, six days, ATPlite
Procedure, shortened: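 Karpas422 cells (2,000/well) in Alpha-MEM with 10% FBS dosed across 10 concentrations (top 5 uM) and grown six days at 37° C., 5% CO2. Viability read as ATPlite luminescence.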

[1] = system: BCL6 reporter construct (3xBCL6-TK-Luc) in SuDHL4 cells; experiment: Cell-based luciferase assay; settings: Homo sapiens, SU-DHL-4, 48 h, read-out: Luciferase-Assay EC50, uM), SuDHL4-3xBCL6-TK-Luc cells, two days, high dose 10 uM
Procedure, shortened: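 SuDHL4 cells stably carrying a 3×BCL6-site TK-promoter firefly luciferase reporter, seeded at 15,000 cells/well, were dosed over a 10-point range (top 10 uM) and grown two days at 37 °C, 5% CO2. Luminescence then read after adding neolite reagent at room temperature.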

## Cc1nc2c(c(-c3cc(C(N)=O)c(O)c(F)c3F)cn2CC(=O)Nc2cc(N3CCN(C)C[C@@H]3C(C)C)ncc2Cl)c(=O)n1C [Compound I-378]
BCL6 BTB domain
  Kd: 118 nM
Karpas422 cells
  IC50: 1.22 µM
[1]
  EC50: 0.944 µM

## Cc1nc2c(c(-c3cc(C(N)=O)c(O)c(F)c3F)cn2CC(=O)Nc2cc(N3CCN(C4CC4)C[C@@H]3C)ncc2Cl)c(=O)n1C [Compound I-379]
BCL6 BTB domain
  Kd: 68.6 nM
Karpas422 cells
  IC50: 0.853 µM
[1]
  EC50: 0.664 µM

## Cc1nc2c(c(-c3cc(C(N)=O)c(O)c(F)c3F)cn2CC(=O)Nc2cc(N3CCN(C(C)C)C[C@@H]3C)ncc2Cl)c(=O)n1C [Compound I-380]
BCL6 BTB domain
  Kd: 56 nM
Karpas422 cells
  IC50: 0.478 µM
[1]
  EC50: 0.59 µM

## COc1ncc(Cl)c(NC(=O)Cn2cc(-c3cc(C(N)=O)c(O)c(F)c3F)c3c(=O)n(C)c(C)nc32)c1F [Compound I-381]
BCL6 BTB domain
  Kd: 240 nM
Karpas422 cells
  IC50: 10 µM
[1]
  EC50: 10 µM

## COc1ncc(Cl)c(NC(=O)Cn2cc(-c3cc(Cl)c(O)c(C(N)=O)c3)c3c(=O)n(C)c(C)nc32)c1F [Compound I-382]
BCL6 BTB domain
  Kd: 342 nM
Karpas422 cells
  IC50: 10 µM
[1]
  EC50: 3.1 µM

## Cn1cnc2c(c(-c3cc(Cl)c(O)c(C(N)=O)c3)cn2CC(=O)Nc2ccc(F)cc2Cl)c1=O [Compound I-383]
BCL6 BTB domain
  Kd: 460 nM
Karpas422 cells
  IC50: 1.05 µM
[1]
  EC50: 2.44 µM

## Cn1cnc2c(c(-c3cc(Cl)c(O)c(C(N)=O)c3)cn2CC(=O)Nc2ccc(C#N)cc2Cl)c1=O [Compound I-384]
BCL6 BTB domain
  Kd: 115 nM
Karpas422 cells
  IC50: 0.8 µM
[1]
  EC50: 1.18 µM

## Cn1cnc2c(c(-c3cc(Cl)c(O)c(C(N)=O)c3)cn2CC(=O)Nc2ccc([N+](=O)[O-])cc2Cl)c1=O [Compound I-385]
BCL6 BTB domain
  Kd: 38.4 nM
Karpas422 cells
  IC50: 0.335 µM
[1]
  EC50: 0.312 µM

## CO[C@@H]1CN(c2cc(NC(=O)Cn3cc(-c4cc(Cl)c(O)c(C(N)=O)c4)c4c(=O)n(C)c(C(F)(F)F)nc43)c(Cl)cn2)C[C@@H]1F [Compound I-386]
BCL6 BTB domain
  Kd: 153 nM
Karpas422 cells
  IC50: 0.772 µM
[1]
  EC50: 1.01 µM

## CO[C@H]1CN(c2cc(NC(=O)Cn3cc(-c4cc(Cl)c(O)c(C(N)=O)c4)c4c(=O)n(C)c(C(F)(F)F)nc43)c(Cl)cn2)C[C@H]1F [Compound I-387]
BCL6 BTB domain
  Kd: 189 nM
Karpas422 cells
  IC50: 1.04 µM
[1]
  EC50: 1.12 µM

## CO[C@@H]1CN(c2cc(NC(=O)Cn3cc(-c4cc(Cl)c(O)c(C(N)=O)c4)c4c(=O)n(C)c(C(F)(F)F)nc43)c(Cl)c(F)n2)C[C@@H]1F [Compound I-388]
BCL6 BTB domain
  Kd: 528 nM
Karpas422 cells
  IC50: 0.394 µM
[1]
  EC50: 1.51 µM

## CO[C@H]1CN(c2cc(NC(=O)Cn3cc(-c4cc(Cl)c(O)c(C(N)=O)c4)c4c(=O)n(C)c(C(F)(F)F)nc43)c(Cl)c(F)n2)C[C@H]1F [Compound I-389]
BCL6 BTB domain
  Kd: 286 nM
Karpas422 cells
  IC50: 1.46 µM
[1]
  EC50: 2.01 µM

## CCN1CCN(c2cc(NC(=O)Cn3cc(-c4cc(F)c(O)c(C(N)=O)c4)c4c(=O)n(C)cnc43)c(Cl)cn2)[C@@H](C)C1 [Compound I-390]
BCL6 BTB domain
  Kd: 6.18 nM
Karpas422 cells
  IC50: 0.0483 µM
[1]
  EC50: 0.0677 µM

## CC(C1CC1)N1CCN(c2cc(NC(=O)Cn3cc(-c4cc(F)c(O)c(C(N)=O)c4)c4c(=O)n(C)cnc43)c(Cl)cn2)[C@@H](C)C1 (stereo partly drawn) [Compound I-391]
BCL6 BTB domain
  Kd: 7.26 nM
Karpas422 cells
  IC50: 0.0726 µM
[1]
  EC50: 0.0672 µM

## CC(C1CC1)N1CCN(c2cc(NC(=O)Cn3cc(-c4cc(Cl)c(O)c(C(N)=O)c4)c4c(=O)n(C)cnc43)c(Cl)cn2)[C@@H](C)C1 (stereo partly drawn) [Compound I-392]
BCL6 BTB domain
  Kd: 15.5 nM
Karpas422 cells
  IC50: 0.072 µM
[1]
  EC50: 0.178 µM

## CC(C1CC1)N1CCN(c2cc(NC(=O)Cn3cc(-c4cc(C(N)=O)c(O)c(F)c4F)c4c(=O)n(C)cnc43)c(Cl)cn2)[C@@H](C)C1 (stereo partly drawn) [Compound I-393]
BCL6 BTB domain
  Kd: 33.6 nM
Karpas422 cells
  IC50: 0.222 µM
[1]
  EC50: 0.266 µM

## CCCN1CCN(c2cc(NC(=O)Cn3cc(-c4cc(C(N)=O)c(O)c(F)c4F)c4c(=O)n(C)cnc43)c(Cl)cn2)[C@@H](C)C1 [Compound I-394]
BCL6 BTB domain
  Kd: 38.4 nM
Karpas422 cells
  IC50: 0.269 µM
[1]
  EC50: 0.313 µM

## CN1CCOC2CN(c3cc(NC(=O)Cn4cc(-c5cc(Cl)c(O)c(C(N)=O)c5)c5c(=O)n(C)c(C(F)(F)F)nc54)c(Cl)cn3)CC21 (stereo not drawn) [Compound I-395]
BCL6 BTB domain
  Kd: 48.3 nM
Karpas422 cells
  IC50: 0.669 µM
[1]
  EC50: 0.168 µM

## CN1CC2CCC(C1)N2c1cc(NC(=O)Cn2cc(-c3cc(Cl)c(O)c(C(N)=O)c3)c3c(=O)n(C)c(C(F)(F)F)nc32)c(Cl)cn1 [Compound I-396]
BCL6 BTB domain
  Kd: 226 nM
Karpas422 cells
  IC50: 0.749 µM
[1]
  EC50: 0.683 µM

## C[C@H]1COCCN1c1cc(NC(=O)Cn2cc(-c3cc(C(N)=O)c(O)c(F)c3F)c3c(=O)n(C)cnc32)c(F)cn1 [Compound I-397]
BCL6 BTB domain
  Kd: 98.3 nM
Karpas422 cells
  IC50: 2.54 µM
[1]
  EC50: 3.31 µM

## COc1ccc(Cl)c(NC(=O)Cn2cc(-c3cc(Cl)c(O)c(C(N)=O)c3)c3c(=O)n(C)cnc32)c1 [Compound I-398]
BCL6 BTB domain
  Kd: 82.7 nM
Karpas422 cells
  IC50: 1.3 µM
[1]
  EC50: 2.6 µM

## CO[C@@H]1CN(c2cc(NC(=O)Cn3cc(-c4cc(Cl)c(O)c(C(N)=O)c4)c4c(=O)n(C)c(C)nc43)c(Cl)c(F)n2)C[C@@H]1F [Compound I-399]
BCL6 BTB domain
  Kd: 30.7 nM
Karpas422 cells
  IC50: 0.535 µM
[1]
  EC50: 0.268 µM

## CO[C@H]1CN(c2cc(NC(=O)Cn3cc(-c4cc(Cl)c(O)c(C(N)=O)c4)c4c(=O)n(C)c(C)nc43)c(Cl)c(F)n2)C[C@H]1F [Compound I-400]
BCL6 BTB domain
  Kd: 27.8 nM
Karpas422 cells
  IC50: 0.408 µM
[1]
  EC50: 0.204 µM

## CO[C@H]1CN(c2cc(NC(=O)Cn3cc(-c4cc(Cl)c(O)c(C(N)=O)c4)c4c(=O)n(C)c(C)nc43)c(Cl)cn2)C[C@H]1F [Compound I-401]
BCL6 BTB domain
  Kd: 28.9 nM
Karpas422 cells
  IC50: 1.22 µM
[1]
  EC50: 0.427 µM

## CO[C@@H]1CN(c2cc(NC(=O)Cn3cc(-c4cc(Cl)c(O)c(C(N)=O)c4)c4c(=O)n(C)c(C)nc43)c(Cl)cn2)C[C@@H]1F [Compound I-402]
BCL6 BTB domain
  Kd: 28 nM
Karpas422 cells
  IC50: 0.714 µM
[1]
  EC50: 0.18 µM

## CN1CCOC2(CCN(c3cc(NC(=O)Cn4cc(-c5cc(C(N)=O)c(O)c(F)c5F)c5c(=O)n(C)cnc54)c(Cl)cn3)C2)C1 (stereo not drawn) [Compound I-403]
BCL6 BTB domain
  Kd: 81.9 nM
Karpas422 cells
  IC50: 3.32 µM
[1]
  EC50: 5.54 µM

## Cn1cnc2c(c(-c3cc(C(N)=O)c(O)c(F)c3F)cn2CC(=O)Nc2cc(N3CCOCC3)ncc2F)c1=O [Compound I-404]
BCL6 BTB domain
  Kd: 106 nM
Karpas422 cells
  IC50: 10 µM
[1]
  EC50: 4.06 µM

## C[C@H]1CN(Cc2ccco2)CCN1c1cc(NC(=O)Cn2cc(-c3cc(C(N)=O)c(O)c(F)c3F)c3c(=O)n(C)cnc32)c(Cl)cn1 [Compound I-405]
BCL6 BTB domain
  Kd: 32.6 nM
Karpas422 cells
  IC50: 0.254 µM
[1]
  EC50: 0.459 µM

## Cc1ccc(CN2CCN(c3cc(NC(=O)Cn4cc(-c5cc(C(N)=O)c(O)c(F)c5F)c5c(=O)n(C)cnc54)c(Cl)cn3)[C@@H](C)C2)s1 [Compound I-406]
BCL6 BTB domain
  Kd: 574 nM
Karpas422 cells
  IC50: 4.32 µM
[1]
  EC50: 3.06 µM

## C[C@H]1CN(CC2(C#N)CC2)CCN1c1cc(NC(=O)Cn2cc(-c3cc(C(N)=O)c(O)c(F)c3F)c3c(=O)n(C)cnc32)c(Cl)cn1 [Compound I-407]
BCL6 BTB domain
  Kd: 23.6 nM
Karpas422 cells
  IC50: 0.377 µM
[1]
  EC50: 0.783 µM

## C[C@H]1CN(CC2CCC2)CCN1c1cc(NC(=O)Cn2cc(-c3cc(C(N)=O)c(O)c(F)c3F)c3c(=O)n(C)cnc32)c(Cl)cn1 [Compound I-408]
BCL6 BTB domain
  Kd: 38.2 nM
Karpas422 cells
  IC50: 0.463 µM
[1]
  EC50: 0.759 µM

## C[C@H]1COCCN1c1cc(NC(=O)Cn2cc(-c3cc(C(N)=O)c(O)c(Cl)c3F)c3c(=O)n(C)cnc32)c(Cl)c(F)n1 [Compound I-409]
BCL6 BTB domain
  Kd: 95.2 nM
Karpas422 cells
  IC50: 1.82 µM
[1]
  EC50: 2.34 µM

## COc1c(O)c(C(N)=O)cc(-c2cn(CC(=O)Nc3cc(N4CCOC[C@@H]4C)nc(F)c3Cl)c3ncn(C)c(=O)c23)c1F [Compound I-411]
BCL6 BTB domain
  Kd: 46.2 nM
Karpas422 cells
  IC50: 1.12 µM
[1]
  EC50: 0.771 µM

## C[C@H]1CN(C2COC2)CCN1c1cc(NC(=O)Cn2cc(-c3cc(Cl)c(O)c(C(N)=O)c3)c3c(=O)n(C)cnc32)c(Cl)c(F)n1 [Compound I-413]
BCL6 BTB domain
  Kd: 6.15 nM
Karpas422 cells
  IC50: 0.0822 µM
[1]
  EC50: 0.06 µM

## COCCN1CCN(c2cc(NC(=O)Cn3cc(-c4cc(C(N)=O)c(O)c(F)c4F)c4c(=O)n(C)cnc43)c(Cl)cn2)[C@@H](C)C1 [Compound I-414]
BCL6 BTB domain
  Kd: 17.9 nM
Karpas422 cells
  IC50: 0.455 µM
[1]
  EC50: 0.374 µM
